Experimental findings from patent US20240374655A1, “INTESTINAL MICROBIOTA AND GVHD” (Memorial Sloan-Kettering Cancer Center, priority 2014, published 2024) are described below.

Data set [1] relates to intestinal microbiota (Clostridiales, Enterococcus). As to the kind of experiment: Flora composition (16S rRNA sequencing of stool) after antibiotic treatment of healthy mice. It counts as in vivo, C57BL/6 mice. To be noted: 100 mg/kg SC twice a day for two days. Here is the method:
(§1) FIGS. 16A-16J Imipenem treatment, compared to aztreonam treatment, suppresses anaerobic commensals and elevates GVHD severity in mice. (A) Flora composition analysis using 16S rRNA sequencing prior to and after treatment with the indicated antibiotics in healthy C57BL/6 mice. Mice were treated with subcutaneous (SC) injections of each antibiotic twice a day for two days (500 mg/kg for pip/tazo and 100 mg/kg for others) and stool samples were collected the following day. Values represent mean±SEM (n=3-4). *, P<0.05; **, P<0.01; ****, P<0.0001. Data are representative of two independent experiments. (B to J) Lethally irradiated 129S1 recipients were transplanted with MHC matched C57BL/6 T-cell depleted bone marrow (TCD-BM) cells and 1×10^6 C57BL/6 T cells. Control mice received TCD-BM only. Recipients were treated with imipenem or aztreonam (100 mg/kg, SC, 3 times a week from day 10 to day 24 following allo-HSCT). (B) Comparison of overall survival, with combined data from three independent experiments (n=15-43). ****, P<0.0001. (C) Mice with GVHD treated with antibiotics were sacrificed on day 21 and GVHD histology scores in target organs were quantified by a blinded pathologist. Data are combined from three independent experiments (n=5-20). *, P<0.05. (D) Stool samples obtained from mice treated with imipenem or aztreonam similarly to those in B were collected on day 21 and analyzed by 16S rRNA gene sequencing, followed by principal coordinate analysis of weighted and normalized UniFrac distances. (E and F) Differential taxonomic abundance between aztreonam treated and imipenem treated recipients was analyzed by (E) linear discriminate analysis coupled with effect size measurements (LEfSe) and (F) by LEfSe projected as a cladogram. Data are representative from more than five independent experiments in D to F. (G and H) Comparisons of bacterial abundance at the phylogenetic levels of (G) order, and (H) genus are shown. Data are combined from 6 independent experiments (n=32-36). ***, P<0.001. (I) Stool samples collected from mice with GVHD treated with antibiotics were collected on day 21, and evaluated by metagenomic shotgun sequence analysis, comparison of bacterial species abundance determined by taxonomy. Numbers 1 through 6 along the x-axis represent the individual subjects. (J) Principal component analysis of quantification of sequence reads from KEGG gene orthologs comparing samples from mice treated with aztreonam and imipenem.
To further explore causality and mechanisms of the effects of antibiotics with anaerobic activity on GVHD, we turned to experiments in mice. […] Mice were treated by subcutaneous (SC) injections of each antibiotic twice a day for two days (500 mg/kg for pip/tazo and 100 mg/kg for others) and stool samples were collected, followed by 16S rRNA gene amplification and sequence analysis.

The nature of data set [2]: Antibiotic treatment in MHC-matched minor antigen-mismatched allo-HSCT GVHD model (C57BL/6 into 129S1). It counts as in vivo. To be noted: mouse, in vivo. Here is the method:
as §1, with “Data are representative from more than five independent experiments in D to F. (G and H) Comparisons of bacterial abundance at the phylogenetic levels of (G) order, and (H) genus are shown. Data are combined from 6 independent experiments (n=32-36). ***, P<0.001.” left out, “Numbers 1 through 6 along the x-axis represent the individual subjects.” left out
(A to G) Lethally irradiated 129S1 recipients were transplanted with C57BL/6 TCD-BM cells with 1×10^6 C57BL/6 T cells. […] (A) Colonic lamina propria-infiltrating leukocytes from recipients were analyzed on day 21 by flow cytometry. […] (C) Lamina propria-infiltrating leukocytes from the colon on day 21 were enriched for CD11b and CD11e simultaneously using a mixture of magnetic beads and IL-23 transcripts were quantified by real time PCR. […] (D) Immunofluorescent staining was used to quantify pSTAT3, CD3, and DAPI positive cells in colonic tissue collected on day 21. […]

For data set [3], the system named is Clostridiales. As to the kind of experiment: Change in Clostridiales abundance in paired stool samples of allo-HSCT patients before and after starting antibiotics. To be noted: before vs after starting the antibiotic; compared to aztreonam. It counts as in vivo, human. The text has this: (A) A retrospective cohort was identified of 283 adult patients who received non-T cell depleted allo-HSCT at our center from 1994 to 2013 and received antibiotics for neutropenic fever. Patients were stratified by exposure to antibiotics with significant activity against anaerobes. Outcomes indicated were depicted by Kaplan-Meier plots and curves compared by the logrank test. (B to G) Six representative clinical cases with time courses depicted of fecal microbiota composition and administration of antibiotic treatments during the course of allo-HSCT. […] (H) Change in abundance of Clostridiales in paired fecal samples from patients undergoing allo-HSCT collected prior to and following treatment with the indicated antibiotics.
For each stool specimen, DNA was purified using a phenol-chloroform extraction technique with mechanical disruption (bead-beating) based on a previously described protocol (60). Samples were analyzed using the 454 GS FLX Titanium platform to sequence the V1-V3 region of the bacterial 16S rRNA gene or were alternatively analyzed using the Illumina MiSeq platform to sequence the V4-V5 region of the 16S rRNA gene. Sequence data were compiled and processed using mothur version 1.34 (61), screened and filtered for quality (62). Operational taxonomic units (OTUs) were classified to the species level (63) using a modified form of the Greengenes reference database (64). Principal component analysis was performed upon a weighted and normalized Unifrac (65) distance matrix of OTU abundance in R software. Data from this study has been stored in the NCBI Sequence Read Archive (see url: www.ncbi.nlm.nih.gov/sra).
HSCT patients were on intestinal bacterial composition. In 2009, our center began to prospectively collect weekly stool samples from patients undergoing allo-HSCT. From this specimen bank, we identified paired stool samples collected from patients prior to as well as following initiation of specific antibiotics during the course of allo-HSCT. […]

Data set [4] relates to 17 strains from a clostridial mix. As to the kind of experiment: Growth of strains from a clostridial mix in BHI media without glucose with added sugars. The data set is classed as cell-based, Clostridia. The settings on record: BHI media without glucose plus sugar. The text has this: Glucose gave the best results and was able to support the growth of 10 of the total 17 strains. Glucose, however would have limited benefit since it likely doesn't give a selective advantage to the beneficial bacteria. Raffinose was able to support 5 strains, while cellobiose appeared to support 4 strains not supported by raffinose. In one embodiment, therefore, a mixture of raffinose and cellobiose can be administered to a subject to provide support for at least a portion of the beneficial bacteria.

Data set [5] has as its system murine Blautia. The data set is described as follows: In vitro suppression of Blautia by L. johnsonii / Lacto-conditioned media and rescue by reducing agents. The data set is classed as cell-based. To be noted: reducing agent added in the presence of Lacto-conditioned media. How it is done:
A) Murine Blautia was grown in peptone yeast glucose broth either alone, or with murine L. johnsonii in conditions of limited media or ample media, and viable colonies were quantified. B) L. johnsonii was allowed to grow in media to plateau phase, then sterile filtered to generate Lacto-conditioned media. Effects of Lacto-conditioned media on the viability of L. johnsonii and murine Blautia were evaluated when mixed with fresh media in a 1:1 ratio. Effects of the addition of 3 reducing agents indicated was also evaluated.
From studying the effects of calorie restriction on intestinal microbiota composition it was observed that obligate anaerobes (Clostridia, Bacteroidetes) are reduced in abundance while facultative anaerobes (Lactobacillos, Proteobacteria) expand. Production of free radicals by E. coli in the setting of starvation has been described previously (Saby S, et al. Appl Environ Microbiol. 1999; 5600-5603). Experiments were designed to examine in vitro if Lactobacillus johnsonii could suppress the growth of our murine Blautia isolate under starvation conditions, and to further investigate if production of free radicals could be a contributing factor. […] The effects of media that had supported the growth of L. johnsonii to plateau phase were further investigated following sterile filtration. […] It was then examined if reducing agents could rescue Blautia from Lacto-conditioned-media-mediated suppression.

The nature of data set [6]: Sugars in drinking water to augment Blautia and mitigate experimental GVHD. To be noted: for GVHD severity / survival of mice with GVHD: 10 g/L in drinking water beginning one week before BMT. The data set is classed as in vivo, C57BL/6 mice. How it is done:
Left: Intestinal abundance of Blautia was evaluated on day 14 after BMT, results of a single experiment. Right: Mice were followed for development of clinical GVHD (combined results of 2 experiments).
Mice were followed for development of clinical GVHD (combined results of 3 experiments).
C57BL/6 mice were inoculated orally with a murine Blautia isolate known to ferment xylose. Some mice were then administered xylose in the drinking water (10 g/L) beginning 7 days prior to BMT with B10.BR BM and T cells.

The test system of data set [7] is Blautia isolate of C57BL/6 origin. The data set is described as follows: Sugar fermentation by bacterial isolate (pH and optical density in media lacking glucose). The data set is classed as cell-based. Here is the method: (§2) Utilizing Blautia isolate of C57BL/6 origin, as well as a Lactobacillus johnsonii of C57BL/6 origin, the ability of these bacteria to ferment a variety of sugars was evaluated using pH and optical density to evaluate bacterial growth in media lacking glucose. Lactobacillus johnsonii was evaluated because this bacteria expands in the setting of calorie restriction at the expense of Clostridia, and is thus presumably a direct competitor for nutrients in the murine intestine.

For data set [8], the system named is Lactobacillus johnsonii of C57BL/6 origin. Described as above. It counts as cell-based. Here is the method:
as §2

Structures are written as SMILES. “Also recorded” adds a separate entry of the source.

In the case of `C[C@H]1[C@H](NC(=O)/C(=N\OC(C)(C)C(=O)O)c2csc(N)n2)C(=O)N1S(=O)(=O)O` [aztreonam], in data set [1], the “Abundance of Clostridiales in stool” value is reported as “spared Clostridiales”. Moreover, the “Bacteria past the colonic epithelial barrier” value in data set [2] is reported as “not seen”. For the same compound, the “Change in Clostridiales abundance in stool of patients” value in data set [3] is given as “relative preservation of Clostridiales abundances”.

Regarding `O=C[C@H](O)[C@@H](O)[C@H](O[C@@H]1O[C@H](CO)[C@@H](O)[C@H](O)[C@H]1O)[C@H](O)CO` [cellobiose], the “Number of strains supported that are not supported by raffinose” value in data set [4] was 4 strains.

For `O=C1O[C@H]([C@@H](O)CO)C(O)=C1O` [ascorbic acid], in data set [5], the “Rescue of Blautia growth from Lacto-conditioned-media-mediated suppression” value (“Rescue of Blautia growth” below) is given as “able to support Blautia growth”.

For the compound `CO/N=C(\C(=O)N[C@@H]1C(=O)N2C(C(=O)[O-])=C(C[N+]3(C)CCCC3)CS[C@H]12)c1csc(N)n1` [cefepime], the “Abundance of Clostridiales in stool” value in data set [1] is given as “spared Clostridiales”.

With `O=C[C@H](O)[C@@H](O)[C@H](O)CO` [xylose], in data set [6], the “GVHD severity / survival of mice with GVHD” value is “improved survival; also recorded: reduced GVHD severity”. Moreover, the “Intestinal abundance of Blautia” value in data set [6] (10 g/L in drinking water from 7 days before BMT, day 14 after BMT, 16S deep sequencing) is reported as “expansion of Blautia; also recorded: increased abundance”. The “Fermentation of sugar by Blautia” value in data set [7] is recorded as “fermented by Blautia”. Moreover, the “Fermentation of sugar by Lactobacillus” value in data set [8] is “not by Lactobacillus”.

Consider `C[C@H](O)[C@H](O)[C@@H](O)[C@@H](O)C=O` [rhamnose], for which the “Fermentation of sugar by Blautia” value in data set [7] is on record as “fermented by Blautia”. Further, the “Fermentation of sugar by Lactobacillus” value in data set [8] is reported as “not by Lactobacillus”.

For `O=C([O-])CS.[Na+]` [sodium thioglycolate], in data set [5], the “Rescue of Blautia growth” value is listed as “able to support Blautia growth”.

For the compound `OC[C@H]1O[C@H](OC[C@H]2O[C@H](O[C@]3(CO)O[C@H](CO)[C@@H](O)[C@@H]3O)[C@H](O)[C@@H](O)[C@@H]2O)[C@H](O)[C@@H](O)[C@H]1O` [raffinose], the “GVHD severity / survival of mice with GVHD” value in data set [6] was “reduces GVHD severity”. Further, the “Number of strains whose growth is supported” value in data set [4] (of the total 17 strains) is listed as 5 strains.

Consider `N[C@@H](CS)C(=O)O` [L-cysteine], for which the “Rescue of Blautia growth” value in data set [5] is reported as “able to support Blautia growth”.
